Broadly, the IC50 is the concentration at which inhibition is half-maximal.

The values below come from US20170363612A1, “COMPOSITIONS AND METHODS RELATING TO PROLIFERATIVE DISORDERS” (Wayne State University, priority 2014, published 2017).

Where “and” joins values, the source holds several entries; their conditions need not be identical. Identical values can stand only once. Like-named read-outs stand apart in the source and are kept apart here. Where only a bound is given, the exact number is not on record here.

Data set [1] deals with SET Ribosome. Description: TR SET Assay (TPA Reference Standard) on HCT116 TR Cell Panel before and after nonadherent tumorsphere growth. The note with it: for SET Activity (day 0): TPA Reference Standard; for SET Activity (post-growth): TPA, after 32 days tumorsphere growth and 14 days replating. The format is cell-based, human. More on the design: concentration or dose not given beside the values.

The subject of data set [2] is SET Ribosome. Description: CremophorEL Cell Count Dose Response Assay, HEK293 TR cell lines. The data set is classed as cell-based, human. The note with it: HEK293 mTRdm-fLUC#12; 100 nM TPA.
Data set [3] has as its system SET Ribosome.
Data set [4] concerns PKC. The note with it: cited from earlier work.
The test system of data set [5] is SET Ribosome. Description: TPA Reference Standard Response Modifier Assay with ribosome binding translation inhibitors, HEK293 hTRdm-fLUC#13. The format is cell-based, human. The note with it: with 100 nM TPA, 6 hours.
For data set [6] the following is noted: cited from earlier work.
For data set [7] the following is noted: cited from earlier work. The source holds these as a separate data set.
Data set [8] can be described thus: LD50 in rats (quoted). The note with it: oral 0.00013 mg/kg/day.
For data set [9], the target named is T1, topoisomerase I (Homo sapiens, UniProt P11387).
T1 sequence (P11387 1-765): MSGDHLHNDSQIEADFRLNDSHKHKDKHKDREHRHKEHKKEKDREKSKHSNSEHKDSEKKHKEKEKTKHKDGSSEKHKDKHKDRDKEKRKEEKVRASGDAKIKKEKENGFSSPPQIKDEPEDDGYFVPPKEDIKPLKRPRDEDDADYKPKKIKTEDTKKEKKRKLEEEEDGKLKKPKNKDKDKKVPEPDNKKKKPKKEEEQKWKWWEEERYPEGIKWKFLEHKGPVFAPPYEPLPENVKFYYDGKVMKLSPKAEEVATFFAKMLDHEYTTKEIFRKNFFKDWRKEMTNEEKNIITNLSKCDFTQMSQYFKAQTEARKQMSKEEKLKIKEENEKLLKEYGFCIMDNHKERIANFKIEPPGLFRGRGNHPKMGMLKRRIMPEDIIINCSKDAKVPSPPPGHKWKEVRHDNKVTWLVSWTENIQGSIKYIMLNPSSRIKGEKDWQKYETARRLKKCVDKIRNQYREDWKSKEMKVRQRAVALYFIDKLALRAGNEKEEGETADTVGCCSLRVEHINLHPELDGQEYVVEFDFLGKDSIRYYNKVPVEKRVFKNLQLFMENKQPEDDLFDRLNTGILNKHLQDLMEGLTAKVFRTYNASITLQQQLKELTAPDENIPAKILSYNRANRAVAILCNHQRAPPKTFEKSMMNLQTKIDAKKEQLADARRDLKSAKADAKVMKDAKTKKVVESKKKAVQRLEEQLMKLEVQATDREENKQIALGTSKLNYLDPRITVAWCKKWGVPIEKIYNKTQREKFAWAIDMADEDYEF
The note with it: cited from earlier work.

Data set [10] is described as follows: LD50 in mice (quoted). The note with it: oral 0.000054 mg/kg/day vs mouse LD50.
For data set [11], the system named is SET Ribosome. In words: Topotecan dose response assay, MCF7 TR Cell Panel. The data set is classed as cell-based, human.
Data set [12] concerns SET Ribosome. Description: Topotecan Modifier Assay on TPA Reference Standard response, HEK293 TR cell lines. The data set is classed as cell-based, human. The note with it: HEK293 hTRdm-fLUC#13 and mTRdm-fLUC#45; with 100 nM TPA; 6 hours.
For data set [13] the following is noted: in vivo, po; cited from earlier work.

Turning to `CCCCCCCCCCCCCC(=O)O[C@@H]1[C@@H](C)[C@@]2(O)[C@@H](C=C(CO)C[C@]3(O)C(=O)C(C)=C[C@@H]23)[C@@H]2C(C)(C)[C@]12OC(C)=O` [TPA, 12-O-tetradecanoylphorbol-13-acetate], the “SET Activity (day 0)” value is 226.3% in [1] (HCT116 mTRdm-fLUC#17); 336.6% in data set [1] (HCT116 mTRdm-fLUC#25); 1,365.5% in data set [1] (HCT116 mTRdm-fLUC#28); 875.3% in data set [1] (HCT116 mTRdm-fLUC#36); 237.5% in data set [1] (HCT116 mTRdm-fLUC#47); 329.4% in data set [1] (HCT116 mTRdm-fLUC#49). The “SET Activity (day 0)” value is 261.1% in [1] (HCT116 mTRdm-fLUC#52); 324.4% in data set [1] (HCT116 mTRdm-fLUC#58); 693.1% in data set [1] (HCT116 mTRdm-fLUC#75); 114.8% in data set [1] (HCT116 mTRdm-fLUC#139); 462.3% in data set [1] (HCT116 mTRdm-fLUC#156); 204.4% in [1] (HCT116 mTRdm-fLUC#190). In addition, the “SET Activity (day 0)” value in [1] (HCT116 mTRdm-fLUC#220) was determined as 115.5%. Also, the “SET Activity (post-growth)” value was 366.0% in [1] (HCT116 mTRdm-fLUC#17); 26,675.6% in [1] (HCT116 mTRdm-fLUC#25); 20,492.8% in data set [1] (HCT116 mTRdm-fLUC#28); 3,926.9% in [1] (HCT116 mTRdm-fLUC#36); 1,434.3% in data set [1] (HCT116 mTRdm-fLUC#47); 2,015.4% in data set [1] (HCT116 mTRdm-fLUC#49). Also, the “SET Activity (post-growth)” value in [1] (HCT116 mTRdm-fLUC#52) was 920.0%; in [1] (HCT116 mTRdm-fLUC#58), 636.6%; in [1] (HCT116 mTRdm-fLUC#75), 19,413.0%; in data set [1] (HCT116 mTRdm-fLUC#139) it was 311.9%; in [1] (HCT116 mTRdm-fLUC#156), 3,673.3%; in [1] (HCT116 mTRdm-fLUC#190), 178.3%. Besides, the “SET Activity (post-growth)” value in data set [1] (HCT116 mTRdm-fLUC#220) was determined as 81.8%. Further, the SET increase in data set [2] is given as more than 2000%. For the same compound, the “SET Response” value in data set [3] is listed as “Agonist”.

For Bryostatin 2, the “enzyme binding constant relative to bryostatin 1” value in data set [4] was 10 times.

As to `CC[C@H]1CN2CCc3cc(OC)c(OC)cc3[C@@H]2C[C@@H]1C[C@H]1NCCc2cc(OC)c(OC)cc21` [emetine, (2S, 3R, 11bS)-2-{{(1R)-6,7-dimethoxy-1,2,3,4-tetrahydroisoquinolin-1-yl]methyl}-3-ethyl-9,10-dimethoxy-2,3,4,6,7,11b-hexahydro-1H-pyrido[2,1-a] isoquinoline], the IC50 in data set [5] (Homo sapiens, HEK293, read-out: IC50, SET ribosome inhibition) was determined as 0.175 µM. For the same compound, the “IC100 (100% SET Ribosome inhibition)” value in [5] is 2.5 µM and 2.5 to 10 µM. The LD50 was 58 µM in data set [6] (subcutaneous), 5 µM in data set [7] (intravenous) and 35 µM in data set [7] (oral). Further, the “factor by which the IC100 dose is lower than the rat LD50” value in [8] is recorded as > 5,231 ×.

As for `CCc1c2c(nc3ccc(O)cc13)-c1cc3c(c(=O)n1C2)COC(=O)[C@]3(O)CC` [SN-38, 7-ethyl-10-hydroxy-camptothecin], in data set [9], the “potency relative to irinotecan” value was 1000 X.

`COc1ccc(C[C@H]2NC[C@H](O)[C@H]2OC(C)=O)cc1` [anisomycin, (2R,3S,4S)-4-hydroxy-2-(4-methoxybenzyl)-pyrrolidin-3-yl acetate]: in data set [6] (route not stated), the LD50 is 75 to 200 mg/kg. In [10], the “factor by which the IC100 dose is lower than a toxic concentration” value is > 14,000 ×.

On to `CC[C@@]1(O)C(=O)OCc2c1cc1n(c2=O)Cc2cc3c(CN(C)C)c(O)ccc3nc2-1.Cl` [Topotecan, (S)-10-[(dimethylamino)methyl]-4-ethyl-4,9-dihydroxy-1H-pyrano[3′,4′:6,7]indolizino[1,2-b]quinoline-3,14(4H,12H)-dione monohydrochloride], for which, in data set [11] (MCF7 TR Cell Panel), the IC100 is more than 5 µM, the “dose of maximal SET response” value stood at 10 nM and the “dose range of SET Agonist activity” value is 2 to 100 nM. In addition, in data set [11] (MCF7 TR Class 3 and Class 4 lines, 6 hours), the “concentrations giving complete SET Ribosome block” value is not below 5 µM. In addition, in [12], the “doses completely blocking SET Ribosome activity” value was more than 5 µM. The “SET Response” value in data set [3] (High dose (HD) 10 uM) was “Antagonist”. Also, the “SET Response” value in [3] (Low dose (LD): Calon 1 uM, Topotecan 100 nM) is reported as “Agonist”. Moreover, in [13], the oral bioavailability is listed as approximately 40% and the “time of peak plasma concentration post-administration” value is 1 to 2 h.
